Measured values: US11918571B2, “Compounds and their methods of use” (Praxis Precision Medicines, Inc., priority 2017, dated 2024)

Molecular target: T1, human Nav1.6 (hNav1.6) (Homo sapiens, UniProt Q9UQD0)
T1 construct: expressed in transfected cells; host or cells: HEK-293 (G418 selection)
Assay: Modulation of late sodium current (INaL), PatchXpress electrophysiology, ATX-II evoked
Assay type: cell-based
Settings: HEK293; 1 μM compound; HEK-293 cells expressing recombinant human Nav1.6; late current evoked by 300 nM ATX-II; read-out: INaL v1.6 (1 μM, % Inhibition)
Protocol: Functional characterization of exemplary compounds to modulate INaL expressed by the Nav1.6 voltage-gated sodium channel was accomplished using the PatchXpress™ high throughput electrophysiology platform (Molecular Devices, Sunnyvale, CA). HEK-293 cells expressing recombinant, human Nav1.6 (hNav1.6) were grown in DMEM/high-glucose Dulbecco's modified, 10% FBS, 2 mM sodium pyruvate, 10 mM HEPES and 400 μg/mL G418. Cells were grown to 50%-80% confluency prior to harvesting. Trypsinized cells were washed, allowed to recover for 1 hour and then resuspended in extracellular recording solution at a concentration of 1×10^6 cells/ml. The onboard liquid handling facility of the PatchXpress was used for dispensing cells and applying test compounds. Nay late currents were evoked by the application of 300 nM ATX-II. INaL was evoked by depolarizing pulses to 0 mV for 200 ms from a non-inactivating holding potential (e.g., −120 mV) at a frequency of 0.1 Hz. INaL amplitude and stability were determined by analyzing the mean current amplitude over the final 20 ms of the test pulse. Following steady state block with exemplary compounds (e.g., as described herein), a Na^+ free solution containing an impermeant cation (e.g., Choline or NDMG) was added to confirm the identify of the sodium current.
Results from this assay relating to percent inhibition of INaL at hNaV1.6 (measured using a procedure similar to described above but using HEK-293 cells expressing recombinant, human Nay 1.6 (h Nay 1.6) at 1 μM are summarized in Table 1 below. In this table, “A” indicates inhibition of less than 30%; “B” indicates inhibition of between about 30% to about 70%; and “C” indicates inhibition of greater than 70%.

T1 sequence (Q9UQD0 whole entry): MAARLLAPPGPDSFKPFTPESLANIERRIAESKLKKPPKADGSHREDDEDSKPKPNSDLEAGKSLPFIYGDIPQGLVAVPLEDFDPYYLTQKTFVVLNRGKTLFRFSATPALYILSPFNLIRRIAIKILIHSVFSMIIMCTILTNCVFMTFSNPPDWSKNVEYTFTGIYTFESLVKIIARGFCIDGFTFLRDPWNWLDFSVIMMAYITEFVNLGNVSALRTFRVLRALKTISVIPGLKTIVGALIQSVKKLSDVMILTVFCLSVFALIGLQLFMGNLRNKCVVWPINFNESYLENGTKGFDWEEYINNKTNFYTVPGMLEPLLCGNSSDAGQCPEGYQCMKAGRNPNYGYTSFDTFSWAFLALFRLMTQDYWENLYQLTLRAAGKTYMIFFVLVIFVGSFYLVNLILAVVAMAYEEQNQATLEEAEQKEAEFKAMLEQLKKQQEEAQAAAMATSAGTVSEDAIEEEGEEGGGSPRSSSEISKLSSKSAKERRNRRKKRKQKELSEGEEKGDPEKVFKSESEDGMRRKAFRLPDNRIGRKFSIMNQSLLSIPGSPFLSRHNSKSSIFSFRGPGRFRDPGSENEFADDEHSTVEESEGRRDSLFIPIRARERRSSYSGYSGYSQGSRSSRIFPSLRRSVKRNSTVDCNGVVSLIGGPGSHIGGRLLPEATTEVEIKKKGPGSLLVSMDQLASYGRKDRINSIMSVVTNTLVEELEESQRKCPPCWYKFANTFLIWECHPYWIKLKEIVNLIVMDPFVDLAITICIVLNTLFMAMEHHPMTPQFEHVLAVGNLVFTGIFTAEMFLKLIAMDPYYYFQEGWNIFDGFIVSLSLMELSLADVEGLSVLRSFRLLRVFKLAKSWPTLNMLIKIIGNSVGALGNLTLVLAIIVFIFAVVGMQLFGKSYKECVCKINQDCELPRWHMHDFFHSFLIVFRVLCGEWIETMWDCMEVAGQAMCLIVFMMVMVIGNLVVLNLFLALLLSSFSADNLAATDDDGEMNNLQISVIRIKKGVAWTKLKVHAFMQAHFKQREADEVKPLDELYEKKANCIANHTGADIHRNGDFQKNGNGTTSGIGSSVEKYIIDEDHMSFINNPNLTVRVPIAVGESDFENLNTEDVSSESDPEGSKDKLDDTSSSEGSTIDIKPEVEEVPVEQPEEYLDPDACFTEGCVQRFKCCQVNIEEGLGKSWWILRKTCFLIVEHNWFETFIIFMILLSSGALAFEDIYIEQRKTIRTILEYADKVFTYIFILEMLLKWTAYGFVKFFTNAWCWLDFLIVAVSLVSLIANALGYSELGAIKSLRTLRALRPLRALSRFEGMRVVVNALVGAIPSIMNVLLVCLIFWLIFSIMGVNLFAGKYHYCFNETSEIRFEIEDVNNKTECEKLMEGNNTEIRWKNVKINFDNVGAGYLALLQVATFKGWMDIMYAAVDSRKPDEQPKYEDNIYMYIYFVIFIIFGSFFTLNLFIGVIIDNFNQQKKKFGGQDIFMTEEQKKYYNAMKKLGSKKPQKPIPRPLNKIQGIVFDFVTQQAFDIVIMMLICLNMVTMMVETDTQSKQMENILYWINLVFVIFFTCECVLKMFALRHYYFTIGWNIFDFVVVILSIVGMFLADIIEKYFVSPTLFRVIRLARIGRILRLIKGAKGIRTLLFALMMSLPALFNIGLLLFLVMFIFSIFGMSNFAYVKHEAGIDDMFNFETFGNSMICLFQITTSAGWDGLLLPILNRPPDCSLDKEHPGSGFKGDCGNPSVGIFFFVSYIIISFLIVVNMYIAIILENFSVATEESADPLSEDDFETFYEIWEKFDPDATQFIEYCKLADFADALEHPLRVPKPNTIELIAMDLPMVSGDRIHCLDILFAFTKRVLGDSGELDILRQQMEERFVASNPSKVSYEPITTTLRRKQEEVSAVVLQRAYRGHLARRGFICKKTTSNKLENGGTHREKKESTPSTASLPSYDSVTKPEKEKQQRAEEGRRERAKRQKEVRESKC

Row | SMILES | inhibition at 1 µM [%]
1 | FC1(F)C[C@@H]1c1ccc(-c2ccn3nncc3c2)cc1 (single isomer, unassigned) [Compound 23-1] | 30 to 70
2 | FC1(F)C[C@H]1c1ccc(-c2ccn3nncc3c2)cc1 (single isomer, unassigned) [Compound 23-2] | > 70
3 | Cc1cc(OC(F)(F)F)ccc1-c1ccn2nncc2c1 [Compound 1, 5-[2-methyl-4-(trifluoromethoxy)phenyl]triazolo[1,5-a]pyridine] | 30 to 70
4 | COCc1cc(OC(F)(F)F)ccc1-c1ccn2nncc2c1 [Compound 2] | > 70
5 | Cc1cc(OC(F)(F)F)ccc1-c1ccn2nnc(C)c2c1 [Compound 3] | > 70
6 | Cc1cc(OC(F)(F)F)ccc1-c1ccn2nnc(C(F)(F)F)c2c1 [Compound 4] | > 70
7 | Cc1cc(OC(F)(F)F)ccc1-c1cc(C)n2nncc2c1 [Compound 5] | > 70
8 | Cc1nnn2ccc(-c3ccc(C4(C#N)CC4)cc3)cc12 [Compound 6] | 30 to 70
9 | Cc1nnn2ccc(-c3ccc(OC(F)(F)F)cc3)cc12 [Compound 7] | > 70
10 | Cc1nnn2ccc(-c3cnc(OCC(F)(F)F)c(F)c3)cc12 [Compound 8] | 30 to 70
11 | FC(F)(F)Oc1ccc(-c2ccn3nncc3c2)cc1 [Compound 9] | > 70
12 | Fc1cc(-c2ccn3nncc3c2)cnc1OCC(F)(F)F [Compound 10] | 30 to 70
13 | Fc1cc(-c2ccn3nncc3c2)cnc1OC1CC(F)(F)C1 [Compound 11] | > 70
14 | Cc1nnn2ccc(-c3cnc(OC4CC(F)(F)C4)c(F)c3)cc12 [Compound 12] | > 70
15 | COCc1nnn2ccc(-c3ccc(OC(F)(F)F)cc3C)cc12 [Compound 13] | > 70
16 | FC(F)Oc1ccc(-c2ccn3nncc3c2)cc1 [Compound 14] | 30 to 70
17 | FC(F)(F)COc1ccc(-c2ccn3nncc3c2)cn1 [Compound 15] | > 70
18 | COCc1cc(-c2ccn3nncc3c2)ccc1OC(F)(F)F [Compound 16] | 30 to 70
19 | C[C@@H](Oc1ncc(-c2ccn3nncc3c2)cc1F)C(F)(F)F [Compound 17, 5-[5-fluoro-6-[(1R)-2,2,2-trifluoro-1-methyl-ethoxy]-3-pyridyl]triazolo[1,5-a]pyridine] | > 70
20 | C[C@H](Oc1ncc(-c2ccn3nncc3c2)cc1F)C(F)(F)F [Compound 18, 5-[5-fluoro-6-[(15)-2,2,2-trifluoro-1-methyl-ethoxy]-3-pyridyl]triazolo[1,5-a]pyridine] | > 70
21 | COCc1nnn2ccc(-c3cnc(OCC(F)(F)F)c(F)c3)cc12 [Compound 20] | 30 to 70
22 | Cc1nnn2ccc(-c3cnc(O[C@H](C)C(F)(F)F)c(F)c3)cc12 [Compound 21] | > 70
23 | Cc1nnn2ccc(-c3cnc(O[C@@H](C)C(F)(F)F)c(F)c3)cc12 [Compound 22] | > 70

Row | SMILES | inhibition at 1 µM [%]
24 | CC(C)(Oc1ncc(-c2ccn3nncc3c2)cc1F)C(F)(F)F [Compound 24] | > 70
25 | Cc1nnn2ccc(-c3cnc(OC(C)(C)C(F)(F)F)c(F)c3)cc12 [Compound 25] | > 70
26 | COCc1nnn2ccc(-c3cnc(OC(C)(C)C(F)(F)F)c(F)c3)cc12 [Compound 26] | > 70
27 | COCc1nnn2ccc(-c3cnc(O[C@@H](C)C(F)(F)F)c(F)c3)cc12 [Compound 27] | > 70
28 | COCc1nnn2ccc(-c3cnc(OC4(C(F)(F)F)CCC4)c(F)c3)cc12 [Compound 29] | > 70
29 | C[C@@H](Oc1ncc(-c2ccn3nnc(C(F)(F)F)c3c2)cc1F)C(F)(F)F [Compound 30] | > 70
30 | C[C@H](Oc1ncc(-c2ccn3nnc(C(F)(F)F)c3c2)cc1F)C(F)(F)F [Compound 31] | > 70
31 | [2H]c1nnn2ccc(-c3cnc(O[C@H](C)C(F)(F)F)c(F)c3)cc12 [Compound 32] | > 70
32 | [2H]c1nnn2ccc(-c3cnc(O[C@@H](C)C(F)(F)F)c(F)c3)cc12 [Compound 33] | > 70
33 | [2H]c1nnn2ccc(-c3cnc(OCC(F)(F)F)c(F)c3)cc12 [Compound 34] | > 70
34 | [2H]c1nnn2ccc(-c3cnc(OC(C)(C)C(F)(F)F)c(F)c3)cc12 [Compound 35] | > 70
35 | [2H]c1nnn2ccc(-c3cnc(OC4(C(F)(F)F)CCC4)c(F)c3)cc12 [Compound 36] | > 70
36 | C[C@@H](Oc1ncc(-c2ccn3nnc(C(F)F)c3c2)cc1F)C(F)(F)F [Compound 37] | > 70
37 | C[C@H](Oc1ncc(-c2ccn3nnc(C(F)F)c3c2)cc1F)C(F)(F)F [Compound 38] | > 70
38 | CC(C)(Oc1ncc(-c2ccn3nnc(C(F)F)c3c2)cc1F)C(F)(F)F [Compound 39] | > 70
39 | [2H]C([2H])([2H])OCc1nnn2ccc(-c3cnc(OC(C)(C)C(F)(F)F)c(F)c3)cc12 [Compound 40] | > 70
40 | [2H]C([2H])(OC)c1nnn2ccc(-c3cnc(OC(C)(C)C(F)(F)F)c(F)c3)cc12 [Compound 41] | > 70
41 | [2H]C([2H])([2H])c1nnn2ccc(-c3cnc(OC(C)(C)C(F)(F)F)c(F)c3)cc12 [Compound 42] | > 70
42 | COc1cc(OC(F)(F)F)ccc1-c1ccn2nnc(C)c2c1 [Compound 43] | > 70
43 | Cc1cc(-c2cnc(O[C@H](C)C(F)(F)F)c(F)c2)cc2cnnn12 [Compound 44] | 30 to 70
44 | Cc1cc(-c2cnc(O[C@@H](C)C(F)(F)F)c(F)c2)cc2cnnn12 [Compound 45] | > 70
45 | Cc1cc(-c2cnc(OCC(F)(F)F)c(F)c2)cc2cnnn12 [Compound 46] | 30 to 70
